The results in this text go back to PubChem BioAssay (NCI).

Some test systems named below: K-562 leukemia; KM12 colon; MALME-3M melanoma; OVCAR-3 ovarian; OVCAR-8 ovarian; RPMI-8226 leukemia; SK-MEL-5 melanoma; SN12C renal; SW-620 colon; UACC-62 melanoma.
Common to all, as to assay: inhibition of tumour cell growth, NCI panel, 48 h

Each structure is given as a SMILES string.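 Compound exposure: 48 hours, 5 concentrations, 96-well plates. Here, GI50 denotes the concentration required for 50% inhibition of growth. TGI is the concentration that stops growth completely.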 A value given as a limit tells only on which side of the number the result lay.

As to `Cc1ccc(S(=O)(=O)Oc2ccc([N+](=O)[O-])cc2[N+](=O)[O-])cc1`, the GI50 with K-562 leukemia is 0.689 µM; in the assay with KM12 colon, 6.7 µM; in the assay with MALME-3M melanoma it was 10.7 µM; in the assay on OVCAR-3 ovarian it was 3.24 µM; in the assay on OVCAR-8 ovarian it was 4.24 µM; in the assay with RPMI-8226 leukemia, 2.45 µM. Further, the GI50 with SK-MEL-5 melanoma is 3.26 µM; in the assay with SN12C renal, 3.78 µM; with SW-620 colon, 4.04 µM; in the assay on UACC-62 melanoma, 12.4 µM. Moreover, the TGI with K-562 leukemia was over 100 µM; in the assay with KM12 colon, 20 µM; in the assay with MALME-3M melanoma, 29.8 µM; in the assay with OVCAR-3 ovarian, 11.5 µM; with OVCAR-8 ovarian it was 20.5 µM; with RPMI-8226 leukemia, 7.84 µM. For the same compound, the TGI in the assay on SK-MEL-5 melanoma is 12.5 µM; in the assay on SN12C renal it was 17.3 µM; in the assay on SW-620 colon, 24.9 µM; in the assay with UACC-62 melanoma, 30.9 µM.
Regarding `Sc1ccc2ccccc2c1CNCc1ccccc1`, the TGI in the assay on K-562 leukemia turned out to be 39 µM; in the assay on KM12 colon, 30.8 µM; in the assay with MALME-3M melanoma, 78.5 µM; with OVCAR-3 ovarian, 31.4 µM; in the assay with OVCAR-8 ovarian, 65.8 µM; with RPMI-8226 leukemia it was 31.9 µM. Further, the TGI is 25.3 µM in the assay with SK-MEL-5 melanoma, 25.7 µM in the assay with SN12C renal, over 100 µM in the assay with SW-620 colon and 28.6 µM with UACC-62 melanoma.
Take `O=c1c(-c2ccccc2)c2oc(c1-c1ccccc1)CS(=O)(=O)CCC2`: the TGI in the assay on K-562 leukemia is over 100 µM; with KM12 colon, over 100 µM; in the assay with MALME-3M melanoma, over 100 µM; with OVCAR-3 ovarian it was 73 µM; in the assay on OVCAR-8 ovarian, over 100 µM; with RPMI-8226 leukemia it was over 100 µM. Besides, the TGI was 85 µM with SK-MEL-5 melanoma, 44.2 µM in the assay with SN12C renal, over 100 µM in the assay with SW-620 colon and 54.3 µM in the assay with UACC-62 melanoma.
For the compound `COc1ccc(/C=N/N=C(\N)NO)c(Cl)c1O`, the TGI in the assay on K-562 leukemia, in the assay with KM12 colon, in the assay with MALME-3M melanoma, with OVCAR-3 ovarian, with OVCAR-8 ovarian and in the assay with RPMI-8226 leukemia was over 100 µM each time. Also, the TGI in the assay on SK-MEL-5 melanoma was 40.6 µM; in the assay with SN12C renal it was over 100 µM; in the assay with SW-620 colon it was over 100 µM; in the assay on UACC-62 melanoma, over 100 µM.
For the compound `N.N.N.N.O=NN1CCCCCC1(P(=O)([O-])[O-])P(=O)([O-])[O-].[Pt+4].[Pt+4]`, the GI50 in the assay with K-562 leukemia, in the assay with KM12 colon, in the assay on MALME-3M melanoma, in the assay on OVCAR-3 ovarian, in the assay on OVCAR-8 ovarian and in the assay on RPMI-8226 leukemia was over 100 µM in each case. Also, the GI50 with SK-MEL-5 melanoma, in the assay with SN12C renal, with SW-620 colon and with UACC-62 melanoma was over 100 µM each time. The TGI with K-562 leukemia, with KM12 colon, in the assay with MALME-3M melanoma, in the assay on OVCAR-3 ovarian, in the assay on OVCAR-8 ovarian and in the assay on RPMI-8226 leukemia was over 100 µM in each case. Moreover, the TGI with SK-MEL-5 melanoma, in the assay with SN12C renal, with SW-620 colon and in the assay with UACC-62 melanoma was over 100 µM throughout.
Consider `CCN(CC)CC.CCOc1ccc(NC(=O)N=C=[N-])cc1.[CH-]1CCCCC1.[CH-]1CCCCC1.[CH-]1CCCCC1.[Cl-].[Sn+4]`, for which the GI50 in the assay on K-562 leukemia is 0.0171 µM; with KM12 colon, 0.0161 µM; with MALME-3M melanoma it was 0.0452 µM; with OVCAR-3 ovarian, 0.0171 µM; with OVCAR-8 ovarian, 0.0424 µM; with RPMI-8226 leukemia it was 0.0199 µM. The GI50 is 0.0303 µM in the assay with SK-MEL-5 melanoma, 0.0233 µM in the assay on SN12C renal, 0.0169 µM with SW-620 colon and 0.0228 µM in the assay on UACC-62 melanoma. Further, the TGI came out at 0.463 µM in the assay with K-562 leukemia; 0.0429 µM in the assay with KM12 colon; 0.119 µM in the assay with MALME-3M melanoma; 0.038 µM in the assay on OVCAR-3 ovarian; 0.123 µM with OVCAR-8 ovarian; 0.064 µM in the assay with RPMI-8226 leukemia. Further, the TGI in the assay on SK-MEL-5 melanoma is 0.0941 µM; in the assay with SN12C renal, 0.0634 µM; with SW-620 colon, 0.0326 µM; in the assay with UACC-62 melanoma, 0.0559 µM.
In the case of `COc1cc2c(F)nccc2cc1C(=O)N[C@@H](c1ccc(F)c(Cl)c1)[C@@H]1C[C@@H](O)CN1`, the GI50 in the assay with K-562 leukemia was 3.87 µM; in the assay with KM12 colon it was 1.69 µM; in the assay on MALME-3M melanoma, 0.716 µM; with OVCAR-3 ovarian it was 8.43 µM; with OVCAR-8 ovarian, 13.2 µM; in the assay with RPMI-8226 leukemia it was 7.72 µM. The GI50 is 14.7 µM in the assay with SK-MEL-5 melanoma, 8.08 µM with SN12C renal, 6.39 µM in the assay with SW-620 colon and 0.514 µM in the assay with UACC-62 melanoma. For the same compound, the TGI with K-562 leukemia is over 78.4 µM; in the assay with KM12 colon, 19.3 µM; in the assay on MALME-3M melanoma, 15.4 µM; in the assay on OVCAR-3 ovarian it was 24.7 µM; in the assay with OVCAR-8 ovarian, 28.9 µM; in the assay on RPMI-8226 leukemia, 40.1 µM. Besides, the TGI in the assay with SK-MEL-5 melanoma came out at 28.1 µM; with SN12C renal, 22.2 µM; in the assay with SW-620 colon, 23.6 µM; with UACC-62 melanoma, 16.9 µM.
Take `CCN1C(=O)N(CC)C2C1NN=c1s/c(=C\c3ccccc3F)c(=O)n12` (centres undefined): the GI50 in the assay with K-562 leukemia was 0.0301 µM; in the assay on KM12 colon, 0.0278 µM; with MALME-3M melanoma, 15.4 µM; in the assay with OVCAR-3 ovarian, 0.0282 µM; in the assay on OVCAR-8 ovarian it was 0.0357 µM; in the assay on RPMI-8226 leukemia, 0.0415 µM. The GI50 with SK-MEL-5 melanoma was 0.0289 µM; with SN12C renal it was 0.0522 µM; in the assay on SW-620 colon, 0.0379 µM; in the assay on UACC-62 melanoma, 0.0505 µM. The TGI with K-562 leukemia was over 100 µM; in the assay with KM12 colon it was over 48.9 µM; in the assay with MALME-3M melanoma, over 100 µM; with OVCAR-3 ovarian it was 0.0789 µM; with RPMI-8226 leukemia it was over 37.7 µM; in the assay with SK-MEL-5 melanoma, 0.203 µM. Also, the TGI with SN12C renal was over 100 µM; with SW-620 colon it was over 100 µM; in the assay on UACC-62 melanoma, over 80.4 µM.
For `CC(C)N(C(=O)C1(C)CC1)C(C)C`, the TGI in the assay with K-562 leukemia, in the assay with KM12 colon, with MALME-3M melanoma, in the assay on OVCAR-3 ovarian, with OVCAR-8 ovarian and in the assay on RPMI-8226 leukemia was over 100 µM in each case. Besides, the TGI in the assay on SK-MEL-5 melanoma, in the assay on SN12C renal, in the assay with SW-620 colon and in the assay with UACC-62 melanoma was over 100 µM each time.
